According to PMC9739537, “Bioassay-Guided Fractionation with Antimalarial and Antimicrobial Activities of Paeonia officinalis” (Molecules, 2022):
Values after ≈ are worked out from the molar mass of the structure shown. Where two headings read alike, the source gives them in different places.

Experiments:
[1] = tested on: P. falciparum D6; experiment: Antimalarial assay (plasmodial LDH activity), D6 strain; type: cell-based, Plasmodium falciparum; conditions: for IC50: Plasmodium falciparum, read-out: IC50 antiplasmodial activity, P. falciparum D6; for SI (Selectivity index), P. falciparum D6: VERO vs P. falciparum D6
Experimental: (§1) The assay is based on the measurement of plasmodial LDH activity. The test was conducted using a suspension of red blood cells infected with D6 or W2 strains of P. falciparum (200 µL, with 2% parasitemia, and 2% hematocrit in RPMI 1640 medium supplemented with 10% human serum and 60 µg/mL Amikacin) into the wells of a 96-well plate containing 10 µL of test samples diluted in medium at various concentrations. The plate was put in a modular incubation chamber (Billups-Rothenberg, San Diego, CA, USA); flushed with a gas mixture consisting of 90% N2, 5% O2, and 5% CO2; and incubated for 72 h at 37 °C. Parasitic LDH activity was measured by utilizing Malstat reagent (Flow Inc., Portland, OR, USA). Briefly, 20 µL of the incubation mixture was combined with 100 µL of the Malstat reagent and incubated at room temperature for 30 min. Then, twenty microliters of a 1:1 mixture of NBT/PES (Sigma, St. Louis, MO, USA) was added and the plate was further incubated in the dark for 1 h. The reaction was then stopped by the addition of 100 µL of a 5% acetic acid solution. The plate was read at 650 nm using the EL-340 Biokinetics Reader (Bio-Tek Instruments, Winooski, VT, USA). The dose–response curves were used to calculate IC50 values. […] Dimethyl sulfoxide (0.25%) was used as vehicle control.

[2] = tested on: P. falciparum W2; experiment: Antimalarial assay (plasmodial LDH activity), W2 strain; type: cell-based, Plasmodium falciparum; conditions: for IC50: Plasmodium falciparum, read-out: IC50 antiplasmodial activity, P. falciparum W2; for SI (Selectivity index), P. falciparum W2: VERO vs P. falciparum W2
Experimental: as §1

[3] = tested on: VERO; experiment: Cytotoxicity toward mammalian kidney fibroblasts (Vero); type: cell-based; conditions: Chlorocebus sabaeus, VERO cells
[4] = tested on: C. neoformans; experiment: Antimicrobial susceptibility testing (modified CLSI), C. neoformans; type: cell-based, Cryptococcus neoformans
Text: (§2) The microorganism strains that were employed to test the antimicrobial activity were Candida albicans Pinh, C. neoformans Pinh, Aspergillus fumigatus Pinh, methicillin-resistant Staphylococcus aureus Pinh (MRS), E. coli Pinh, Pseudomonas aeruginosa Pinh, Klebsiella pneumoniae Pinh, and Vancomycin-resistant Enterococci (VRE) Pinh. The strains were bought from the American Type Culture Collection. A modified version of the CLSI methodology was used for the susceptibility testing. A final DMSO concentration of 1% was maintained in the assay by serially diluting all samples in 20% DMSO/saline and transferring them in duplicate to 384 well flat-bottom microplates. Following the McFarland standard, inocula were created by adjusting the OD630 of microbe suspensions in incubation broth. C. albicans was cultured in RPMI 1640 broth (2% dextrose, 0.03% glutamine, and MOPS at pH 6); C. neoformans in Sabouraud Dextrose; MRS, VRE, E. coli, K. pneumoniae, and P. aeruginosa in cation-adjusted Mueller–Hinton at pH 7.3, and A. fumigatus in RPMI 1640 broth (2% dextrose, 0.03% glutamine, buffered with 0.165 M MOPS at pH 7). Five percent Alamar Blue was added in A. fumigatus, VRE, and MRS. In every assay, there were drug controls for bacteria and fungi. […] A Bio-Tek plate reader was used to measure the optical density (530 nm) or fluorescence (544ex/590em) before and after incubation.

[5] = tested on: methicillin-resistant Staphylococcus aureus (MRS); experiment: Antimicrobial susceptibility testing (modified CLSI), MRS; type: cell-based
Text: as §2

[6] = tested on: Pseudomonas aeruginosa; experiment: Antimicrobial susceptibility testing (modified CLSI), P. aeruginosa; type: cell-based
Text: as §2

[7] = tested on: Klebsiella pneumoniae; experiment: Antimicrobial susceptibility testing (modified CLSI), K. pneumoniae; type: cell-based
Text: as §2

[8] = tested on: Candida albicans, C. neoformans, Aspergillus fumigatus, MRS, E. coli, Pseudomonas aeruginosa, Klebsiella pneumoniae, VRE; experiment: Antimicrobial panel (all assayed microorganisms); type: cell-based; conditions: at the tested concentration
Text: as §2

| Structure (SMILES) | IC50 ([1]; D6 strain, 72 h) | IC50 ([2]; W2 strain, 72 h) | IC50 [3] | antiplasmodial activity against P. falciparum D6 (in words) ([1]; D6 strain) | SI (Selectivity index), P. falciparum D6 [1] | SI (Selectivity index), P. falciparum W2 [2] | antiplasmodial activity against P. falciparum W2 (in words) ([2]; W2 strain) | antimicrobial activity (in words) [8] | other results |
| --- | --- | --- | --- | --- | --- | --- | --- | --- | --- |
| CCN(CC)CCCC(C)Nc1ccnc2cc(Cl)ccc12 (stereo not shown) [Chloroquine, chloroquine, reference compound] |  |  | > 0.24 µg/mL |  |  |  |  |  | IC50 ([1]; D6, 72 h): 0.026 µg/mL (≈ 0.0813 µM); IC50 ([2]; W2, 72 h): 0.14 µg/mL (≈ 0.438 µM) |
| OC(Cn1cncn1)(Cn1cncn1)c1ccc(F)cc1F [Fluconazole, fluconazole] |  |  |  |  |  |  |  |  | IC50 antimicrobial activity, C. neoformans [4]: 4.684 µg/mL (≈ 15.3 µM); IC50 ([4]; Cryptococcus neoformans): 4.68 µg/mL (≈ 15.3 µM) |
| C[C@@H](O)[C@H]1C(=O)N2C(C(=O)O)=C(S[C@@H]3CN[C@H](C(=O)N(C)C)C3)[C@H](C)[C@H]12 [Meropenem, meropenem] |  |  |  |  |  |  |  |  | IC50 [5]: 46.9 µg/mL (≈ 122 µM); IC50 [6]: 28.7 µg/mL (≈ 74.8 µM); IC50 antimicrobial activity, K. pneumoniae [7]: 9.143 µg/mL (≈ 23.8 µM); IC50 antimicrobial activity, K. pneumoniae ([7]; listed as meropenem): 43.94 µg/mL (≈ 115 µM) |
| COC(=O)c1cc(O)c(O)c(O)c1 [compound 3, methyl gallate] | 1.57 µg/mL (≈ 8.53 µM) | 0.61 µg/mL (≈ 3.31 µM) | > 4.76 µg/mL | remarkable antiplasmodial activity | >3 | >7.8 | remarkable antiplasmodial activity | no exhibition of antimicrobial activity |  |
| C[C@@]12C[C@@]3(O)O[C@@H](O1)[C@]1(COC(=O)c4ccccc4)[C@@H]3C[C@]12O[C@@H]1O[C@H](COC(=O)c2cc(O)c(O)c(O)c2)[C@@H](O)[C@H](O)[C@H]1O [compound 5, galloyl paeoniflorin] | 4.72 µg/mL (≈ 7.46 µM) | 2.91 µg/mL (≈ 4.6 µM) | > 4.76 µg/mL | remarkable antiplasmodial activity | >1 | >1.6 | remarkable antiplasmodial activity | no exhibition of antimicrobial activity |  |
